pIC50: −log10 of the molar value.

Nav 1.7, sequence (Q15858 whole entry): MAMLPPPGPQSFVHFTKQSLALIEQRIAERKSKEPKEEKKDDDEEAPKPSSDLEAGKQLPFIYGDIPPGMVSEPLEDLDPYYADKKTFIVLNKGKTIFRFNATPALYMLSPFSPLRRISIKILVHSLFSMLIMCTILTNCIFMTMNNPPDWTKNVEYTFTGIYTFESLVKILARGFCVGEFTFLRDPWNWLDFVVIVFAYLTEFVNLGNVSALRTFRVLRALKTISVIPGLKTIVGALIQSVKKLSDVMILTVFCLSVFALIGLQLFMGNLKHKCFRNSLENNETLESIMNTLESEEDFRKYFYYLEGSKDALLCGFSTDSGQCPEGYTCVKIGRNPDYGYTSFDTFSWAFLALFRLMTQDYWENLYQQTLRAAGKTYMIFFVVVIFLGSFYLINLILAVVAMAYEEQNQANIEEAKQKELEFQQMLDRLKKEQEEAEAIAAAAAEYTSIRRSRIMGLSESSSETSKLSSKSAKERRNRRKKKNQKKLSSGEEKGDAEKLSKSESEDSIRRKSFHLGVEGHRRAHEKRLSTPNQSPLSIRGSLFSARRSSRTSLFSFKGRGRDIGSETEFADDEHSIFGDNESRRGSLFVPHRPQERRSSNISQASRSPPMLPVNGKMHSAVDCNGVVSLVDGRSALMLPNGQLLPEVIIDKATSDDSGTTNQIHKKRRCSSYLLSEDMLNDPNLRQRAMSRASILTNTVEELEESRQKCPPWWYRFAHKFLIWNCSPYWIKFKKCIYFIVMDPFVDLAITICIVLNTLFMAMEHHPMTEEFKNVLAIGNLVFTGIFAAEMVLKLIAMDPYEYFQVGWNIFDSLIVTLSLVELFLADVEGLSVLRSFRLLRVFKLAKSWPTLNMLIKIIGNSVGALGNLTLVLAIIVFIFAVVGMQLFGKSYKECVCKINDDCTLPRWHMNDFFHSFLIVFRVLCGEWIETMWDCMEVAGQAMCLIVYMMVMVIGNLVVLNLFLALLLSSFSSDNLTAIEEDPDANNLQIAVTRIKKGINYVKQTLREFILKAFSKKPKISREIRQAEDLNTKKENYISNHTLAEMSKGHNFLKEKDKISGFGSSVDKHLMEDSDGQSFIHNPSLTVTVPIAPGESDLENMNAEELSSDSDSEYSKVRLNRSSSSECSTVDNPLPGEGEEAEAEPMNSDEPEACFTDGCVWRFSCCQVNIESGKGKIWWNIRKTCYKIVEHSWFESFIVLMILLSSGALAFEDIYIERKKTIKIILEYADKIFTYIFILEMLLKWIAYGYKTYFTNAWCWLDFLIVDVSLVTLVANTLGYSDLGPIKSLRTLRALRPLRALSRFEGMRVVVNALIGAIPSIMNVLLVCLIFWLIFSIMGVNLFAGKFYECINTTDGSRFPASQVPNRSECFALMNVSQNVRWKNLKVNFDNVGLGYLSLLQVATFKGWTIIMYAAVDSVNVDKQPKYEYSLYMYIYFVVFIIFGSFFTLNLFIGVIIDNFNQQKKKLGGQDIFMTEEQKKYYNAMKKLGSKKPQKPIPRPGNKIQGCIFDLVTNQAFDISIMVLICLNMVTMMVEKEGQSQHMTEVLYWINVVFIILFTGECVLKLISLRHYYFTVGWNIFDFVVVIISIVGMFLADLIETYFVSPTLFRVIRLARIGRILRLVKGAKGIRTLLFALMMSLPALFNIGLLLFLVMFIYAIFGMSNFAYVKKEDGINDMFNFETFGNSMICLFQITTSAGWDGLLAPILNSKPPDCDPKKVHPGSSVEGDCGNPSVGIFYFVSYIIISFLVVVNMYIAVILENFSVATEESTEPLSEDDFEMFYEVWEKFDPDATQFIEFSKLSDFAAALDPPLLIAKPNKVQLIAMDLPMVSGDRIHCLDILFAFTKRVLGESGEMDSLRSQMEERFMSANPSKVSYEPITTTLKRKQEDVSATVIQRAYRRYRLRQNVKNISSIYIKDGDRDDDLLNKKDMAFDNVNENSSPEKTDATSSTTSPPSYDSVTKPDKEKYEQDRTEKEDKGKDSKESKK

The experiment addresses Nav 1.7 (Homo sapiens (Human), UniProt Q15858). Description: in-vitro Nav 1.7 PX (IC50). The experiment is classed as cell-based. As to conditions: in-vitro Nav 1.7 PX data.
The molecule `CCOc1cccc(-c2cc(OC)c(-n3c(=O)ccc4cc(S(=O)(=O)Nc5ccon5)ccc43)cc2F)c1` [Example 727, 1-(3′-ethoxy-2-fluoro-5-methoxy-4-biphenylyl)-N-3-isoxazolyl-2-oxo-1,2-dihydro-6-quinolinesulfonamide] had a pIC50 of 7.60.
In the case of `COc1cc(-c2cccc(OC(F)(F)F)c2)c(F)cc1-n1c(=O)ccc2cc(S(=O)(=O)Nc3ccon3)ccc21` [Example 728, 1-(2-fluoro-5-methoxy-3′-(trifluoromethoxy)-4-biphenylyl)-N-3-isoxazolyl-2-oxo-1,2-dihydro-6-quinolinesulfonamide], the pIC50 was 8.10.
Regarding `COc1ccc(-c2cc(OC)c(-n3c(=O)ccc4cc(S(=O)(=O)Nc5ccon5)ccc43)cc2F)cn1` [Example 729, 1-(5-fluoro-2-methoxy-4-(6-methoxy-3-pyridinyl)phenyl)-N-3-isoxazolyl-2-oxo-1,2-dihydro-6-quinolinesulfonamide], the pIC50 was 6.22.
Next, `COc1cc(-c2cncc(F)c2)c(F)cc1-n1c(=O)ccc2cc(S(=O)(=O)Nc3ccon3)ccc21` [Example 730, 1-(5-fluoro-4-(5-fluoro-3-pyridinyl)-2-methoxyphenyl)-N-3-isoxazolyl-2-oxo-1,2-dihydro-6-quinolinesulfonamide]: 6.10; `COc1cc(-c2cccc(OC)c2Cl)c(F)cc1-n1c(=O)ccc2cc(S(=O)(=O)Nc3ccon3)ccc21` [Example 731, 1-(2′-chloro-2-fluoro-3′,5-dimethoxy-4-biphenylyl)-N-3-isoxazolyl-2-oxo-1,2-dihydro-6-quinolinesulfonamide]: 6.85; `COc1ccc(F)c(-c2cc(OC)c(-n3c(=O)ccc4cc(S(=O)(=O)Nc5ccon5)ccc43)cc2F)c1` [Example 732, 1-(2,2′-difluoro-5,5′-dimethoxy-4-biphenylyl)-N-3-isoxazolyl-2-oxo-1,2-dihydro-6-quinolinesulfonamide]: 7.25.
Next, `COc1cc(-c2ccc(Cl)cc2F)c(F)cc1-n1c(=O)ccc2cc(S(=O)(=O)Nc3ccon3)ccc21` [Example 733, 1-(4′-chloro-2,2′-difluoro-5-methoxy-4-biphenylyl)-N-3-isoxazolyl-2-oxo-1,2-dihydro-6-quinolinesulfonamide]: 7.70; `COc1cc(-c2cccc(OC)c2F)c(F)cc1-n1c(=O)ccc2cc(S(=O)(=O)Nc3ccon3)ccc21` [Example 734, 1-(2,2′-difluoro-3′,5-dimethoxy-4-biphenylyl)-N-3-isoxazolyl-2-oxo-1,2-dihydro-6-quinolinesulfonamide]: 7.09.
The same measure for `COc1cc(-c2cccc(OC)c2C)c(F)cc1-n1c(=O)ccc2cc(S(=O)(=O)Nc3ccon3)ccc21` [Example 735, 1-(2-fluoro-3′,5-dimethoxy-2′-methyl-4-biphenylyl)-N-3-isoxazolyl-2-oxo-1,2-dihydro-6-quinolinesulfonamide]: 7.27; for `COc1cc(-c2ccnc(C)c2)c(F)cc1-n1c(=O)ccc2cc(S(=O)(=O)Nc3ccon3)ccc21` [Example 736, 1-(5-fluoro-2-methoxy-4-(2-methyl-4-pyridinyl)phenyl)-N-3-isoxazolyl-2-oxo-1,2-dihydro-6-quinolinesulfonamide]: 5.55.
Molecule `COc1cc(-c2cccnc2C)c(F)cc1-n1c(=O)ccc2cc(S(=O)(=O)Nc3ccon3)ccc21` [Example 737, 1-(5-fluoro-2-methoxy-4-(2-methyl-3-pyridinyl)phenyl)-N-3-isoxazolyl-2-oxo-1,2-dihydro-6-quinolinesulfonamide] showed a pIC50 of 5.90.
For `COc1cncc(-c2cc(OC)c(-n3c(=O)ccc4cc(S(=O)(=O)Nc5ccon5)ccc43)cc2F)c1` [Example 738, 1-(5-fluoro-2-methoxy-4-(5-methoxy-3-pyridinyl)phenyl)-N-3-isoxazolyl-2-oxo-1,2-dihydro-6-quinolinesulfonamide], the pIC50 was 5.91.
The same measure for `COc1cc(-c2cc(OC)c(-n3c(=O)ccc4cc(S(=O)(=O)Nc5ccon5)ccc43)cc2F)ccn1` [Example 739, 1-(5-fluoro-2-methoxy-4-(2-methoxy-4-pyridinyl)phenyl)-N-3-isoxazolyl-2-oxo-1,2-dihydro-6-quinolinesulfonamide]: 6.65; for `COc1cc(-c2cnc(OC)c(Cl)c2)c(F)cc1-n1c(=O)ccc2cc(S(=O)(=O)Nc3ccon3)ccc21` [Example 740, 1-(4-(5-chloro-6-methoxy-3-pyridinyl)-5-fluoro-2-methoxyphenyl)-N-3-isoxazolyl-2-oxo-1,2-dihydro-6-quinolinesulfonamide]: 8.05.
The molecule `COc1cc(F)ccc1-c1cc(OC)c(-n2c(=O)ccc3cc(S(=O)(=O)Nc4ccon4)ccc32)cc1F` [Example 741, 1-(2,4′-difluoro-2′,5-dimethoxy-4-biphenylyl)-N-3-isoxazolyl-2-oxo-1,2-dihydro-6-quinolinesulfonamide] showed a pIC50 of 7.15.
Next, `COc1cc(-c2ccc(Cl)cc2C)c(F)cc1-n1c(=O)ccc2cc(S(=O)(=O)Nc3ccon3)ccc21` [Example 742, 1-(4′-chloro-2-fluoro-5-methoxy-2′-methyl-4-biphenylyl)-N-3-isoxazolyl-2-oxo-1,2-dihydro-6-quinolinesulfonamide]: 8.15; `COc1cc(-c2cc(Cl)ccc2C)c(F)cc1-n1c(=O)ccc2cc(S(=O)(=O)Nc3ccon3)ccc21` [Example 743, 1-(5′-chloro-2-fluoro-5-methoxy-2′-methyl-4-biphenylyl)-N-3-isoxazolyl-2-oxo-1,2-dihydro-6-quinolinesulfonamide]: 8.30.
Next, `COc1ccc(Cl)cc1-c1cc(OC)c(-n2c(=O)ccc3cc(S(=O)(=O)Nc4ccon4)ccc32)cc1F` [Example 744, 1-(5′-chloro-2-fluoro-2′,5-dimethoxy-4-biphenylyl)-N-3-isoxazolyl-2-oxo-1,2-dihydro-6-quinolinesulfonamide]: 8.15.
For `COc1cc(-c2ccnc(OC)c2Cl)c(F)cc1-n1c(=O)ccc2cc(S(=O)(=O)Nc3ccon3)ccc21` [Example 745, 1-(4-(3-chloro-2-methoxy-4-pyridinyl)-5-fluoro-2-methoxyphenyl)-N-3-isoxazolyl-2-oxo-1,2-dihydro-6-quinolinesulfonamide], the pIC50 was 7.29.
In turn, `COc1cc(-c2ccc(Cl)cc2)c(F)cc1-n1c(=O)ccc2cc(S(=O)(=O)Nc3cccnn3)ccc21` [Example 746, 1-(4′-chloro-2-fluoro-5-methoxy-4-biphenylyl)-2-oxo-N-3-pyridazinyl-1,2-dihydro-6-quinolinesulfonamide] had a pIC50 of 7.62.
The molecule `COc1cc(-c2cccc(Cl)c2OC)c(F)cc1-n1c(=O)ccc2cc(S(=O)(=O)Nc3ccon3)ccc21` [Example 747, 1-(3′-chloro-2-fluoro-2′,5-dimethoxy-4-biphenylyl)-N-3-isoxazolyl-2-oxo-1,2-dihydro-6-quinolinesulfonamide] gave a pIC50 of 7.80.
For the molecule `COc1cc(-c2ccncc2Cl)c(F)cc1-n1c(=O)ccc2cc(S(=O)(=O)Nc3ccon3)ccc21` [Example 748, 1-(4-(3-chloro-4-pyridinyl)-5-fluoro-2-methoxyphenyl)-N-3-isoxazolyl-2-oxo-1,2-dihydro-6-quinolinesulfonamide], the negative logarithm of the IC50 (pIC50) is 6.24.

Values taken from US9212182B2, “Bicyclic sulfonamide compounds as sodium channel inhibitors” (AMGEN INC., priority 2013, dated 2015).
